# No end group written: not given here.
# How the values were obtained:
# [1] = tested on: nerve cells of the N/K/M multicellular model; experiment: Growth of nerve endings through the porous insert (anti-β-tubulin epifluorescence); format: cell-based; conditions: 10^−5 M noradrenalin, 10 days
# Description: Using a multicellular model as obtained in Example 1, the cells were cultured in the absence or presence of 10^−5 M noradrenalin, for 10 days.
# The N/K/M culture medium was deposited into the culture wells and into the inserts.
# The various media were renewed 50/50 every day.
# The nerve cells were labelled with an anti-β-tubulin monoclonal antibody (Sigma T8660) and then visualized with goat anti-mouse immunoglobulin antibody-Alexa fluor 488 conjugate (Interchim A-11029).
# After thorough washing in PBS, the preparations were observed by epifluorescence (Nikon Diaphot 300 microscope) and photographed.
# The photographs were taken below the insert (on the keratinocyte-neuron site).
# [2] = tested on: CGRP release by nerve cells; experiment: Measurement of CGRP release in culture supernatants of the N/K/M model (ELISA); format: cell-based, rat
# Description: At the end of the experiment described in Example 3, the supernatants from the wells and from the inserts were collected separately and immediately frozen at −80° C. in order to analyze the CGRP content. The CGRP content was measured in the culture supernatants by means of an ELISA assay (Rat CGRP enzyme Immuno Assay Kit, Spi Bio A05482) according to the protocol recommended by the supplier. The results are expressed in μg of CGRP/ml of medium. The analysis of the results was carried out as described above.
# [3] = tested on: nerve cell-keratinocyte-melanocyte (N/K/M) multicellular model (melanogenesis); experiment: Melanin amount in nerve cell-keratinocyte-melanocyte (N/K/M) multicellular model under noradrenergic stress; format: cell-based, human; conditions: for amount of melanin, +noradrenalin: 10^−5 M noradrenalin alone (Control) or with CGRP8-37 10^−6 M or Calmiskin 0.03%; for melanin synthesis by melanocytes (in words): multicellular model
# Description: The experimental data were analyzed by means of the PRISM® software (graph pad software). The intergroup comparisons were carried out by analysis of variance (ANOVA) using Dunnett's multiple comparison test. The comparisons between two samples were carried out by analysis using the T test. They represent the mean of 4 independent experiments. They are expressed in μg of melanin/ml.
# [4] = 10 days, mean of 4 independent experiments
Compound,density of the cell extensions (nerve endings crossing the insert) [1],"CGRP release in the insert (in words) ([2]; insert supernatant, 10^−5 M noradrenalin, with or without 0.03% Calmiskin)","CGRP content, insert ([2]; supernatant of inserts (nerve cells), 10 days, 10^−5 M noradrenalin alone or with 0.03% Calmiskin)","CGRP content, culture well ([2]; supernatant of wells (keratinocyte/melanocyte side), 10 days, 10^−5 M noradrenalin alone or with 0.03% Calmiskin)","change in amount of melanin synthesized in the cocultures ([3]; 10^−5 M noradrenalin versus control without noradrenalin, 10 days)","amount of melanin, +noradrenalin [3, 4]",melanin synthesis by melanocytes (in words) [3],"amount of melanin, without noradrenalin ([3]; 10 days, no noradrenalin, CGRP8-37 10^−6 M, Calmiskin 0.03%, mean of 4 independent experiments)","change in amount of melanin in the presence of noradrenalin ([3]; versus 10^−5 M noradrenalin alone, Calmiskin 0.03%, CGRP8-37 10^−6 M, 10 days)"
NC[C@H](O)c1ccc(O)c(O)c1 [noradrenalin],increased,very substantial,493.86 ± 11.57 μg of CGRP/ml of medium,170.48 ± 19.47 μg of CGRP/ml of medium,+15%,25.77 ± 0.72 μg of melanin/ml,increase in melanin synthesis,,
"CGRP8-37: reference CGRP receptor antagonist (VTHRLAGLLSRSGGVVKNNFVPTNVGSKAF; ends and bridges not checked; UniProt P06881 90-119, looked up, fragment)",,,,,,21.35 ± 0.91 μg of melanin/ml,considerable decrease in melanin synthesis,19.33 ± 0.48 μg of melanin/ml,−17.2%

# — US7910367B2, “Cell culture model and applications thereof” (L'Oreal, priority 2006, dated 2011)
